Test results published in article PMC12090182, “Repurposing of the RIPK1-Selective Benzo[1,4]oxazepin-4-one Scaffold for the Development of a Type III LIMK1/2 Inhibitor” (ACS Chemical Biology, 2025).

Tested on: MRC-9 cells
Assay: Multiplex high-content viability assessment
Format: cell-based
Conditions: human fibroblast
Outline: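 HEK293T and U2OS cells (DMEM) and MRC-9 fibroblasts (EMEM) exposed to compounds at 1 and 10 μM. Live-cell confocal imaging of cell shape and fluorescence before and at 12, 24 and 48 h. Normalized to 0.1% DMSO; biological duplicates with SEM.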

[1] = 1 µM, 0 h, biological replicate 1
[2] = 1 µM, 0 h, biological replicate 2
[3] = 1 µM, 12 h, biological replicate 1
[4] = 1 µM, 12 h, biological replicate 2
[5] = 1 µM, 24 h, biological replicate 1
[6] = 1 µM, 24 h, biological replicate 2
[7] = 1 µM, 48 h, biological replicate 1
[8] = 1 µM, 48 h, biological replicate 2
[9] = 10 µM, 0 h, biological replicate 1
[10] = 10 µM, 0 h, biological replicate 2
[11] = 10 µM, 12 h, biological replicate 1
[12] = 10 µM, 12 h, biological replicate 2
[13] = 10 µM, 24 h, biological replicate 1
[14] = 10 µM, 24 h, biological replicate 2
[15] = 10 µM, 48 h, biological replicate 1
[16] = 10 µM, 48 h, biological replicate 2

For `CC(C)C(=O)Nc1ncc(-c2cc(C(F)F)nn2-c2c(Cl)cccc2Cl)s1` [LIMKi3], the “Cell count normalized to cells treated with DMSO control” value (from here on “Cell count normalized to cells treated”) [1] was 1.034, the “Cell count per well” value [1] was 155 and the “Population Fragmented Nuclei (%)” value [1] was 25.33%. The “Population Healthy Nuclei (%)” value [1] was 53.33%, the “Population Pyknosed Nuclei (%)” value [1] was 21.33% and the “Population apoptotic cell (%)” value [1] was 34.38%. The “Population cell that influence microtubule strucutre (%)” value [1] was 18.75%, the “Population with increased mitochondrial mass (%)” value [1] was 7.50% and the “Population with membrane disruption (%)” value [1] was 1.25%. For the same molecule, the “Cell count normalized to cells treated” value [2] was 0.869, the “Cell count per well” value [2] was 155 and the “Population Fragmented Nuclei (%)” value [2] was 31.13%. The “Population Healthy Nuclei (%)” value [2] was 41.06%, the “Population Pyknosed Nuclei (%)” value [2] was 27.81% and the “Population apoptotic cell (%)” value [2] was 38.10%. The “Population cell that influence microtubule strucutre (%)” value [2] was 48.39%, the “Population with increased mitochondrial mass (%)” value [2] was 11.29% and the “Population with membrane disruption (%)” value [2] was 8.06%. The “Cell count normalized to cells treated” value [3] was 0.9165, the “Cell count per well” value [3] was 138 and the “Population Fragmented Nuclei (%)” value [3] was 20.00%. The “Population Healthy Nuclei (%)” value [3] was 63.70%, the “Population Pyknosed Nuclei (%)” value [3] was 16.30% and the “Population apoptotic cell (%)” value [3] was 22.73%. For the same molecule, the “Population cell that influence microtubule strucutre (%)” value [3] was 25.58%, the “Population with increased mitochondrial mass (%)” value [3] was 5.81% and the “Population with membrane disruption (%)” value [3] was 1.16%. The “Cell count normalized to cells treated” value [4] was 0.8765, the “Cell count per well” value [4] was 146 and the “Population Fragmented Nuclei (%)” value [4] was 30.94%. For the same molecule, the “Population Healthy Nuclei (%)” value [4] was 44.60%, the “Population Pyknosed Nuclei (%)” value [4] was 24.46% and the “Population apoptotic cell (%)” value [4] was 35.29%. The “Population cell that influence microtubule strucutre (%)” value [4] was 75.81%, the “Population with increased mitochondrial mass (%)” value [4] was 11.29% and the “Population with membrane disruption (%)” value [4] was 20.97%. For the same molecule, the “Cell count normalized to cells treated” value [5] was 0.9351, the “Cell count per well” value [5] was 141 and the “Population Fragmented Nuclei (%)” value [5] was 15.83%. The “Population Healthy Nuclei (%)” value [5] was 69.06%, the “Population Pyknosed Nuclei (%)” value [5] was 15.11% and the “Population apoptotic cell (%)” value [5] was 33.33%. The “Population cell that influence microtubule strucutre (%)” value [5] was 33.33%, the “Population with increased mitochondrial mass (%)” value [5] was 7.29% and the “Population with membrane disruption (%)” value [5] was 0.00%. For the same molecule, the “Cell count normalized to cells treated” value [6] was 0.8553, the “Cell count per well” value [6] was 141 and the “Population Fragmented Nuclei (%)” value [6] was 38.85%. For the same molecule, the “Population Healthy Nuclei (%)” value [6] was 41.73%, the “Population Pyknosed Nuclei (%)” value [6] was 19.42% and the “Population apoptotic cell (%)” value [6] was 40.74%. The “Population cell that influence microtubule strucutre (%)” value [6] was 62.07%, the “Population with increased mitochondrial mass (%)” value [6] was 12.07% and the “Population with membrane disruption (%)” value [6] was 20.69%. The “Cell count normalized to cells treated” value [7] was 0.9887, the “Cell count per well” value [7] was 150 and the “Population Fragmented Nuclei (%)” value [7] was 26.21%. For the same molecule, the “Population Healthy Nuclei (%)” value [7] was 62.07%, the “Population Pyknosed Nuclei (%)” value [7] was 11.72% and the “Population apoptotic cell (%)” value [7] was 52.94%. For the same molecule, the “Population cell that influence microtubule strucutre (%)” value [7] was 31.11%, the “Population with increased mitochondrial mass (%)” value [7] was 6.67% and the “Population with membrane disruption (%)” value [7] was 0.00%. For the same molecule, the “Cell count normalized to cells treated” value [8] was 0.8351, the “Cell count per well” value [8] was 136 and the “Population Fragmented Nuclei (%)” value [8] was 42.54%. The “Population Healthy Nuclei (%)” value [8] was 45.52%, the “Population Pyknosed Nuclei (%)” value [8] was 11.94% and the “Population apoptotic cell (%)” value [8] was 37.50%. For the same molecule, the “Population cell that influence microtubule strucutre (%)” value [8] was 77.05%, the “Population with increased mitochondrial mass (%)” value [8] was 14.75% and the “Population with membrane disruption (%)” value [8] was 9.84%. The “Cell count normalized to cells treated” value [9] was 1.054, the “Cell count per well” value [9] was 158 and the “Population Fragmented Nuclei (%)” value [9] was 19.48%. For the same molecule, the “Population Healthy Nuclei (%)” value [9] was 62.99%, the “Population Pyknosed Nuclei (%)” value [9] was 17.53% and the “Population apoptotic cell (%)” value [9] was 44.44%. The “Population cell that influence microtubule strucutre (%)” value [9] was 22.68%, the “Population with increased mitochondrial mass (%)” value [9] was 9.28% and the “Population with membrane disruption (%)” value [9] was 0.00%. For the same molecule, the “Cell count normalized to cells treated” value [10] was 1.02, the “Cell count per well” value [10] was 182 and the “Population Fragmented Nuclei (%)” value [10] was 18.39%. The “Population Healthy Nuclei (%)” value [10] was 59.77%, the “Population Pyknosed Nuclei (%)” value [10] was 21.84% and the “Population apoptotic cell (%)” value [10] was 50.00%. For the same molecule, the “Population cell that influence microtubule strucutre (%)” value [10] was 38.46%, the “Population with increased mitochondrial mass (%)” value [10] was 6.73% and the “Population with membrane disruption (%)” value [10] was 4.81%. The “Cell count normalized to cells treated” value [11] was 1.2685, the “Cell count per well” value [11] was 191 and the “Population Fragmented Nuclei (%)” value [11] was 21.91%. For the same molecule, the “Population Healthy Nuclei (%)” value [11] was 61.24%, the “Population Pyknosed Nuclei (%)” value [11] was 16.85% and the “Population apoptotic cell (%)” value [11] was 40.00%. For the same molecule, the “Population cell that influence microtubule strucutre (%)” value [11] was 92.66%, the “Population with increased mitochondrial mass (%)” value [11] was 15.60% and the “Population with membrane disruption (%)” value [11] was 0.92%. The “Cell count normalized to cells treated” value [12] was 1.111, the “Cell count per well” value [12] was 185 and the “Population Fragmented Nuclei (%)” value [12] was 27.68%. For the same molecule, the “Population Healthy Nuclei (%)” value [12] was 47.46%, the “Population Pyknosed Nuclei (%)” value [12] was 24.86% and the “Population apoptotic cell (%)” value [12] was 52.27%. For the same molecule, the “Population cell that influence microtubule strucutre (%)” value [12] was 92.86%, the “Population with increased mitochondrial mass (%)” value [12] was 14.29% and the “Population with membrane disruption (%)” value [12] was 21.43%. For the same molecule, the “Cell count normalized to cells treated” value [13] was 1.273, the “Cell count per well” value [13] was 192 and the “Population Fragmented Nuclei (%)” value [13] was 24.02%. For the same molecule, the “Population Healthy Nuclei (%)” value [13] was 64.25%, the “Population Pyknosed Nuclei (%)” value [13] was 11.73% and the “Population apoptotic cell (%)” value [13] was 42.86%. For the same molecule, the “Population cell that influence microtubule strucutre (%)” value [13] was 93.04%, the “Population with increased mitochondrial mass (%)” value [13] was 32.17% and the “Population with membrane disruption (%)” value [13] was 1.74%. The “Cell count normalized to cells treated” value [14] was 1.116, the “Cell count per well” value [14] was 184 and the “Population Fragmented Nuclei (%)” value [14] was 31.58%. The “Population Healthy Nuclei (%)” value [14] was 47.95%, the “Population Pyknosed Nuclei (%)” value [14] was 20.47% and the “Population apoptotic cell (%)” value [14] was 48.57%. For the same molecule, the “Population cell that influence microtubule strucutre (%)” value [14] was 92.68%, the “Population with increased mitochondrial mass (%)” value [14] was 21.95% and the “Population with membrane disruption (%)” value [14] was 6.10%. For the same molecule, the “Cell count normalized to cells treated” value [15] was 1.325, the “Cell count per well” value [15] was 201 and the “Population Fragmented Nuclei (%)” value [15] was 25.53%. For the same molecule, the “Population Healthy Nuclei (%)” value [15] was 63.83%, the “Population Pyknosed Nuclei (%)” value [15] was 10.64% and the “Population apoptotic cell (%)” value [15] was 70.00%. For the same molecule, the “Population cell that influence microtubule strucutre (%)” value [15] was 98.33%, the “Population with increased mitochondrial mass (%)” value [15] was 42.50% and the “Population with membrane disruption (%)” value [15] was 0.83%. For the same molecule, the “Cell count normalized to cells treated” value [16] was 1.216, the “Cell count per well” value [16] was 198 and the “Population Fragmented Nuclei (%)” value [16] was 37.50%. The “Population Healthy Nuclei (%)” value [16] was 43.23%, the “Population Pyknosed Nuclei (%)” value [16] was 19.27% and the “Population apoptotic cell (%)” value [16] was 51.35%. For the same molecule, the “Population cell that influence microtubule strucutre (%)” value [16] was 90.36%, the “Population with increased mitochondrial mass (%)” value [16] was 21.69% and the “Population with membrane disruption (%)” value [16] was 12.05%.
